The values that follow are results of earlier work, collected in patent US20170101678A1, “METHOD FOR SCREENING RISK OF DRUG-INDUCED TOXICITY” (RESEARCH CENTER FOR BIOTECHNOLOGY AND MEDICINE POLICY, priority 2014, published 2017).

Where two headings read alike, the source gives them in different places.

For the series the following is noted: patients treated with INH.

Regarding `NNC(=O)c1ccncc1` [INH, Isoniazid], the “patients developing hepatitis or increased liver readings” value is, setting by setting: (CYP2E1 1A/1A genotype) 39%; (CYP2E1 1A/1B genotype) 15%.
